Measurements reported in patent US8105604B2, “WT1 modified peptide” (International Institute of Cancer Immunology, Inc., priority 2001, dated 2012).
Where two headings read alike, the source gives them in different places. Residues, ends and D or L forms follow the SMILES beside them. No end group written: not given here.

Columns and labels:
C1R2402 cells = experiment: Killing assay (51Cr release) by peptide-stimulated effector cells on peptide-pulsed C1R2402 target cells; format: cell-based
From the text: FIG. 1 is a graph showing the cell killing effects (specific cytolytic activity) on C1R2402 target cells (T), either pulsed or not pulsed with peptide, by effecter cells (E) stimulated with WT1 wild peptide (Sequence ID No. 2) or the WT1 modified peptide of the present invention (Sequence ID No. 3). In the graph, the black circles indicate the cytolytic effect on C1R2402 target cells pulsed with wild peptide by effecter cells stimulated with WT1 modified peptide, the black squares indicate the cytolytic effect on […] target cells pulsed with wild peptide by effecter cells stimulated with WT1 wild peptide, the white circles indicate the cytolytic effect on C1R2402 target cells not pulsed with wild peptide by effecter cells stimulated with WT1 modified peptide, and the white squares indicate the cytolytic effect on C1R2402 target cells not pulsed with wild peptide by effecter cells stimulated with WT1 wild peptide.
FIG. 3 is a graph showing the cell killing effects (specific cytolytic activity) on C1R2402 target cells, either pulsed or not pulsed with peptide, by effecter cells stimulated with WT1 wild peptide or the WT1 modified peptide of the present invention. […]

[1] = test system: RERF-LCAI, LC1sq, 11-18 and LK87 lung cancer cells; experiment: 51Cr release cytotoxicity assay on lung cancer cell lines; format: cell-based; details: FIG. 4; E:T 20:1, 4 hours
Protocol: The cytotoxic activity of effector cells stimulated with WT1 wild peptide or WT1 modified peptide was tested on a cancer cell line associated with lung cancer that endogenously expresses WT1 antigen (target cells) using the ^51Cr release method.

HLA-A*2402 [2] = target: T1, HLA-A*2402 (Homo sapiens, UniProt P04439, D101N/D140Y/D185E/E176V/E190D/F33S/G103R/G107R/I119L/I121M/I306V/K335N/L105A/L180Q/L300P/N151K/N90K/Q86E/Q94H/R106L/R138H/R89G/T104I/T345S/V100E/W191G/Y123F); experiment: Binding affinity to HLA-A*2402 on acid-treated C1RA2402 cells (flow cytometry)
Protocol: After washing the cells with the medium, they were suspended at a concentration of 2×10^6 cells/ml in DMEM medium containing 200 nM β2-microglobulin (Sigma) and 0.5% bovine serum albumin. 15 μl of the cell suspension were mixed with 50 μl of the medium comprising various concentrations of WT1 peptide followed by incubating for 4 hours at room temperature. After washing the cells, they were stained with monoclonal antibody to HLA-A24 labeled with FITC (clone name: 7A12), and the amount of HLA-A24 expressed was analyzed with a flow cytometer FACS system.

[3] = test system: C1R2402 cells pulsed with WT1 wild peptide; experiment: Blocking assay using antibody (51Cr release); format: cell-based; details: FIG. 5; E:T 20:1, 4 hours; anti-HLA class I, anti-HLA class II, anti-CD8 antibody
From the text: The antibodies used consisted of anti-HLA class I antibody, anti-HLA class II antibody and anti-CD8 antibody.

[4] = test system: peripheral blood mononuclear cells from HLA-A*2402-positive donors; experiment: Stimulation of peripheral blood mononuclear cells with peptide; status of the resulting cells; format: cell-based, human
Protocol: Peripheral blood mononuclear cells were isolated from HLA-A*2402-positive donors and distributed among the wells of a 24-well plate at 2×10^6 cells/well followed by the addition of WT1 wild peptide or WT1 modified peptide to a concentration of 20 μM and culturing for 1 week. The medium used at this time consisted of 45% RPMI, 45% AIV, 10% FCS 1× non-essential amino acids and SM/PCG. Following the aforementioned culturing, the cells were adjusted to 2×10^6 cells/well and used as responder cells.
On the other hand, other peripheral blood mononuclear cells were similarly isolated from the same HLA-A*2402-positive donors and then peptide-pulsed by culturing for 4 days with one of the aforementioned peptides at 20 μM. After then irradiating at 30 Gy, the cells were adjusted to 4×10^6 cells/well and used as stimulator cells.
The responder cells and stimulator cells prepared in the manner described above were then mixed and then cultured for 1 week following the addition of IL-2 at 50 U/ml.

[5] = test system: leukemia cells from AML patients (WT1+/A*2402+); experiment: 51Cr release cell killing assay on leukemia cells endogenously expressing WT1 antigen; format: cell-based, human; details: FIG. 2, E:T 20:1, 4 hours, AML patient cells WT1+/-
Protocol: The cell killing activity of effector cells stimulated with WT1 wild peptide or WT1 modified peptide on leukemia cells that endogenously express WT1 antigen was tested according to the ^51Cr release method.

HLA-A*2402 [6] = target: T1, HLA-A*2402; details: reported in J. Immunol., 154, 5994, 1995; cited from earlier work
[7] = resulting cells after stimulation with 20 μM peptide and IL-2 50 U/ml

Row | Compound | cell killing activity (cell lysis) of peptide-stimulated effector cells (C1R2402 cells; Example 1, FIG. 1, E:T ratio 1, 5, 20, C1R2402 target cells pulsed or not pulsed with peptide) | cytotoxic activity of peptide-stimulated effector cells (C1R2402 cells; Example 3, FIG. 3, effector cells from different healthy HLA-A*2402-positive donors) | cytotoxic activity of peptide-stimulated effector cells on lung cancer cell lines [1] | binding affinity for HLA-A*2402 (comparison) (HLA-A*2402 [2]) | Kd (HLA-A*2402 [2]; calculated using pmel 15 antigen peptide as standard, 4 hours at room temperature, read-out: Dissociation constant Kd) [µM] | blocking of cytotoxic activity of peptide-stimulated effector cells by antibodies [3] | No. of cells ([4]; PBMC stimulated with 20 μM peptide, responder plus stimulator cells cultured 1 week with IL-2 50 U/ml) | CD4 [4, 7] [%] | CD8 [4, 7] [%] | cytotoxic activity of peptide-stimulated effector cells on leukemia cells [5] | Kd (HLA-A*2402 [2]) [µM] | binding to HLA-A*2402 (HLA-A*2402 [6])
1 | CSCC[C@H](NC(=O)[C@H](CCC(N)=O)NC(=O)[C@H](CC(N)=O)NC(=O)[C@H](Cc1c[nH]c2ccccc12)NC(=O)[C@@H](NC(=O)[C@H](Cc1ccc(O)cc1)NC(=O)[C@@H](N)CS)[C@@H](C)O)C(=O)N[C@@H](CC(N)=O)C(=O)N[C@@H](CC(C)C)C(=O)O [WT1 modified peptide, Cys Tyr Thr Trp Asn Gln Met Asn Leu] (H-CYTWNQMNL-OH; N-terminus and C-terminus assumed) | more potent cell killing activity than cells stimulated with WT1 wild peptide | more potent cytotoxic activity than cells stimulated with WT1 wild peptide | the level of that activity was higher | stronger binding affinity for HLA-A*2402 than the WT1 wild peptide | 0.64 | blocked by anti-HLA class I antibody and anti-CD8 antibody | 3.0 × 10^6/well | 18 | 38 | the level of that activity was higher |  | 
2 | CSCC[C@H](NC(=O)[C@H](CCC(N)=O)NC(=O)[C@H](CC(N)=O)NC(=O)[C@H](Cc1c[nH]c2ccccc12)NC(=O)[C@@H](NC(=O)[C@H](CCSC)NC(=O)[C@@H](N)CS)[C@@H](C)O)C(=O)N[C@@H](CC(N)=O)C(=O)N[C@@H](CC(C)C)C(=O)O [WT1 wild peptide, Cys Met Thr Trp Asn Gln Met Asn Leu, reference compound] (H-CMTWNQMNL-OH) |  |  | demonstrated cytotoxic activity only on the WT1+/A*2402+ cells |  |  | blocked by anti-HLA class I antibody and anti-CD8 antibody |  |  |  | demonstrated cytotoxic activity on the WT1+/A*2402 cells | 18.2 | 
3 | AYGLDFYIL [melanoma antigen peptide used as standard for the Kd calculation] |  |  |  |  |  |  |  |  |  |  |  | reported to bind to HLA-A*2402
